In patent US20120302636A1, “METHOD OF TREATING A DISORDER ASSOCIATED WITH MTP” (priority 2009, published 2012):
Entries after “also recorded” stand apart in the source; their conditions may differ.

Tests used:
[1] = Example 3: repeated dose study of tablets 1 or 2 mg BID, safety
Procedure: The subjects were divided into two dosing groups and within each dosing group, the subjects were divided as follows: 6 subjects received the compound of formula (I) and 3 subjects received placebo.
For the determination of plasma concentrations of the compound of formula (I) and metabolite M1 in this study, the bioanalytical method achieved a sensitivity (LLOQ) of 0.3 ng/mL. Adverse event (AE) information was collected from each subject.

[2] = Example 4: pharmacokinetics; assay type: in vivo, human
Procedure: One hundred five Japanese patients with hyperlipidemia (LDL-C between 140 and 220 mg/dL; TG≦400 mg/dL) participated in the study. […] For the efficacy analysis, 95 subjects were observed (0.5 mg BID: 25 subjects, 1 mg BID: 24 subjects, 2 mg BID: 22 subjects, 4 mg BID: 24 subjects).

[3] = Example 6: ascending dose study in healthy males and HTG patients, safety; assay type: in vivo
From the text: (§1) Originally, the study was planned as 4 sequential cohorts of healthy male Caucasian subjects (Cohorts 1 to 4) followed by a cohort of male Caucasian patients with elevated triglycerides (HTG patients, Cohort 5). An additional cohort of healthy male Caucasian subjects (Cohort 4.1) was enrolled into the study (6 cohorts in total). The cohorts were as follows: Cohorts 1 to 4.1 had healthy Caucasian males, aged 18-45 years with a body weight of 60-100 kg and body mass index (BMI) between 19-28 kg/m^2 at screening and fasting triglycerides less than 1.69 mmol/L (less than 150 mg/dL) at the screening visit and Day-3. Cohort 5 had Caucasian males, aged 18-50 years with a body weight of 60-115 kg and BMI less than 35 kg/m^2 at screening and with elevated fasting triglycerides (TG≧1.69 mmol/L and <5.62 mmol/L; ≧150 mg/dL and <500 mg/dL) at the screening visit and Day-3.
(§2) The planned treatment for Cohorts 1 to 4 was twice daily administration of 5 mg, 10 mg or 15 mg the compound of formula (I)/placebo, or once daily administration of 30 mg the compound of formula (1)/placebo. […] As only the compound of formula (I) 5 mg capsules were supplied for this study, doses were administered once daily to determine the maximum tolerated dose, and the planned doses for each subsequent cohort were amended based on the safety and tolerability data obtained from the preceding cohort. The dose level and dosing schedule planned for the patients in Cohort 5 was determined by the maximum tolerated dose and dosing schedule as reported from the planned Cohorts 1 to 4.1.
(§3) Twelve healthy male Caucasian subjects were enrolled in each of Cohorts 1 to 4.1; dose cohorts were randomized in a ratio 9:3 to receive the compound of formula (I) or placebo, respectively, at the dose level associated with that cohort. Twelve male Caucasian patients with elevated triglycerides were randomized in a ratio of 8:4 to receive the compound of formula (I) or placebo, respectively, at the maximum tolerated dose level and dosing schedule.
This study was conducted to investigate the safety and tolerability of the compound of formula (I) and to determine the pharmacokinetic and pharmacodynamic profiles of the compound of formula (I) administered, either once or twice a day, for 14 days to healthy non-fasting male Caucasian subjects and male Caucasian HTG patients. The planned treatment for Cohorts 1 to 4 was twice daily administration of 5 mg, 10 mg or 15 mg the compound of formula (I)/placebo, or once daily administration of 30 mg the compound of formula (I)/placebo. […] Consequently, doses were administered once daily to healthy volunteers, and the planned doses for each subsequent cohort were amended based on the safety and tolerability data obtained from the preceding cohort.

serum lipid levels = assay: Example 1: serum lipid levels; assay type: in vivo, human
Procedure: In this study, lipids related to lipoprotein metabolism were determined as serum lipid test items. In the active group, postprandial elevations for RLP-C, TG, LDL-TG, HDL-TG, CM-TG, and ApoB48 (reference data) were inhibited, while LDL-C, HDL-C, TC, and ApoB values decreased. The manifestation of those effects required 3 to 7 days. […] This effect is attributable to the inhibition of diet-derived lipid absorption based on the MTP inhibitory activity of the compound of formula (I) in the small intestine.

[4] = Example 7: weight loss and tolerability in obese subjects; details: for mean changes from baseline in weight: 2 weeks
Procedure: This example involved a clinical study of the compound of formula (I), which was a randomized, double-blind, placebo-controlled, ascending dose study to evaluate the safety, tolerability and pharmacokinetics/pharmacodynamics of the compound of formula (I) tablets administered twice daily for two weeks in obese subjects.
The subjects were separated into four arms of nine (one with ten) test subjects (which were administered the compound of formula (I)) and three placebo subjects.

[5] = Example 9: caloric/food intake and appetite; assay type: in vivo, human; details: 3.5 mg BID, Day 10/11
Procedure: The study enrolled 16 obese male subjects (18-65 years of age (inclusive), with a body mass index (BMI) >30.0 kg/m^2 and <40.0 kg/m^2) who participated in two treatment periods. During Period 1, 8 subjects were randomized to receive 3.5 mg of the compound of formula (I), and 8 subjects were randomized to receive placebo. The compound of formula (I) or placebo was administered twice daily (BID), 30 minutes after the start of breakfast and dinner, for 10 days. All subjects were discharged from the clinic at the end of Period 1 for a 9±2 day discharge period. Subjects then returned for treatment during Period 2, in which (i) the group previously receiving the compound of formula (I) now received placebo, and (ii) the group previously receiving placebo now received the compound of formula (I), in accordance with the protocol described above.
A secondary objective of this study was to examine the effects on caloric/food intake and appetite. Therefore, other secondary PD endpoints in this study included caloric intake and meal weight consumed on Day 10 of each period, as well as visual analog scale (VAS) assessments of hunger, prospective consumption, and fullness on Day 10/11 of each period. VAS assessments of thirst and nausea on Day 10/11 of each period were part of the exploratory analysis.

[6] = Example 6: pharmacokinetics; assay type: in vivo, human; details: 5 to 20 mg QD and BID, healthy males; generally BLQ
From the text: as §1, §2, §3

## CCOC(=O)C(COC(=O)Cc1ccc(NC(=O)c2ccccc2-c2ccc(C(F)(F)F)cc2)c(C(=O)N(C)C)c1)(C(=O)OCC)c1ccccc1 [compound of formula (I), diethyl 2-((2-(3-(dimethylcarbamoyl)-4-(4′-(trifiuoromethyl)biphenyl-2-ylcarboxamido)phenyl)acetoxy)methyl)-2-phenyl malonate]
[1]; 1 mg BID
  subjects with adverse events (incidence): 66.7%
[1]; 2 mg BID
  subjects with adverse events (incidence): 50.0%
[1]; 1 and 2 mg BID
  fat-soluble vitamins (vitamin A, 25-OH vitamin D, and vitamin E): no decrease
  severity of all adverse events: mild
[1]; 1 or 2 mg BID tablets, 14 days
  death or serious adverse events: No death or other serious adverse events occurred
[1]; active group, 12 subjects
  subjects with adverse events (incidence): 58.3%
[1]; overall compound group
  incidence of diarrhea: 25.0%
  incidence of gastrointestinal disorders (SOC): 41.7%
  incidence of investigations (SOC): 33.3%
  incidence of loose stools: 25.0%
[1]; twice daily for 14 days, tablets
  tolerable dose: up to 2 mg
[2]; 0.5 and 1 mg BID, not quantifiable
  plasma compound of formula (I) concentrations: < 0.3 ng/mL
[2]; 2 and 4 mg BID
  plasma compound of formula (I) concentrations: not quantifiable, except in a few sporadic cases
[3]; 5 mg BID, Cohort 1
  subjects withdrawn due to adverse events: 5 subjects
[3]; 5 mg BID, HTG patients, Cohort 5
  tolerability: reasonably well tolerated
[3]; 5 mg BID, healthy subjects, Cohort 1
  tolerability: poorly tolerated; also recorded: not well tolerated
[3]; HTG patients receiving compound, Cohort 5
  subjects reporting treatment-emergent adverse events: 88 % of treatment group
[3]; any cohort
  safety analyses (liver MRIs, tryptase, fat soluble vitamins, fecal fat): no clinically relevant findings
[3]; healthy subjects receiving compound
  subjects reporting treatment-emergent adverse events: 76 % of treatment group
[3]; healthy subjects, Cohorts 2 (5 mg QD), 3 (10 mg QD), 4 (15 mg QD), 4.1 (20 mg QD)
  tolerability: reasonably well-tolerated
[3]; human, in vivo
  fatty liver (liver MRI): without the presence of fatty liver
  renal function tests: did not suggest drug-related nephrotoxicity or hyperglycaemia
Serum lipid levels; active group
  LDL-C, HDL-C, TC, and ApoB values: decreased
  postprandial elevations for RLP-C, TG, LDL-TG, HDL-TG, CM-TG, and ApoB48: inhibited
Serum lipid levels; after the first dose on Day 1
  increase in postprandial values for RLP-C, TG, LDL-TG, HDL-TG, and CM-TG: inhibited an increase
[4]; 1 mg BID
  mean changes from baseline in weight: -0.31 kg
[4]; 1 mg BID, 14 days
  average weight loss: 0.31 kg
[4]; 2.5 mg BID
  mean changes from baseline in weight: -0.68 kg
[4]; 2.5 mg BID, 14 days
  average weight loss: 0.68 kg
[4]; 3.5 mg BID
  mean changes from baseline in weight: -1.39 kg
[4]; 3.5 mg BID, 14 days
  average weight loss: 1.39 kg
[4]; 5 mg BID, 14 days
  average weight loss: 2.07 kg
[4]; 5 mg BID, Day 10 (n=9)
  average weight loss: 2.32 kg
[4]; 5 mg dose group
  subjects who withdrew due to GI-related adverse events prior to Day 14: six
[4]; obese subjects
  tolerability at 5 mg BID: not at 5 mg BID
  well tolerated doses: up to 3.5 mg BID
[5]
  caloric intake, meal weight consumed, VAS of hunger, prospective consumption, fullness, thirst, nausea: no statistically significant treatment differences
[6]
  plasma concentrations of the compound of formula (I): < 3 ng/mL
